Measured values published in US20260231945A1, “NEMATICIDAL COMPOUNDS, THEIR COMPOSITION AND USE THEREOF” (priority 2023, published 2026).

tested on: Root-knot nematodes Meloidogyne spp. juveniles (J2); experiment: whole plant or invertebrate; type: in vivo; details: 500 ppm; 70-100 J2 juveniles; 22±2° C., 70±5% RH; dead/inactive counted at 24, 48, 72 and 96 hours (time of rating not stated)
Protocol: The compound to be tested (4 mg) was dissolved in 40 μl of DMSO to make 100,000 PPM concentration stock solution. […] The nematode suspension (250 μl) having 70-100 juveniles (J2) of Root-knot nematodes Meloidogyne spp. pipetted out to each cell of 24 well bioassay plate. Sterile water (1 ml) was pipetted out in fresh 2.5 ml Eppendorf micro-centrifuge tubes. The desired concentration (500 ppm) of the compound was prepared by adding stock solution in 2.5 ml Eppendorf micro-centrifuge tubes. For each treatment 4 replications were maintained. The bioassay plates were incubated at 22±2° C. and 70±5% RH in humidity chambers.

| SMILES | % Mortality Rating |
| --- | --- |
| N=C(N)NCCCC(N=CC=Cc1ccccn1)C(=O)O (stereo not shown) [Example 40] | A (70-100) |
| CCC(C=NC(CCCNC(=N)N)C(=O)O)=Cc1cscn1 (stereo not shown) [Example 48] | B (50-69) |
| N#Cc1ccc(C=CC=NC(CCCNC(=N)N)C(=O)O)c(C(F)(F)F)c1 (stereo not shown) [Example 39] | A (70-100) |
| CC(C=NC(CCCNC(=N)N)C(=O)O)=Cc1cccs1 (stereo not shown) [Example 46] | B (50-69) |
| N=C(N)NCCCC(N=CC=Cc1ccccc1C(F)(F)F)C(=O)O (stereo not shown) [Example 30] | B (50-69) |
| C=CCc1cccc(C=CC=NC(CCCNC(=N)N)C(=O)O)c1O (stereo not shown) [Example 36] | A (70-100) |
| N=C(N)NCCCC(N=CC=Cc1ccc[nH]1)C(=O)O (stereo not shown) [Example 54] | B (50-69) |
| C=CCc1cccc(C=CC=NC(CCCNC(=N)N)C(=O)O)c1OC (stereo not shown) [Example 37] | B (50-69) |
| N=C(N)NCCCC(N=CC=Cc1ccn[nH]1)C(=O)O (stereo not shown) [Example 50] | B (50-69) |
| N=C(N)NCCCC(N=CC=Cc1nc2ccccc2o1)C(=O)O (stereo not shown) [Example 65] | B (50-69) |
| N=C(N)NCCCC(N=CC=Cc1ccc2cc[nH]c2c1)C(=O)O (stereo not shown) [Example 58] | A (70-100) |
| N=C(N)NCCCC(N=CC=Cc1ccncc1)C(=O)O (stereo not shown) [Example 42] | A (70-100) |
| C=CCc1ccc(C=CC=NC(CCCNC(=N)N)C(=O)O)c(OC)c1 (stereo not shown) [Example 38] | B (50-69) |
| COc1c(C=CC=NC(CCCNC(=N)N)C(=O)O)ccc2[nH]cnc12 (stereo not shown) [Example 61] | C (0 to 49) |
| N=C(N)NCCCC(N=CC=Cc1ccc2c[nH]cc2c1Cl)C(=O)O (stereo not shown) [Example 60] | B (50-69) |
| CCOc1ccc(C=CC=NC(CCCNC(=N)N)C(=O)O)cc1 (stereo not shown) [Example 33] | C (0 to 49) |
| N=C(N)NCCCC(N=CC=Cc1coc2ccccc12)C(=O)O (stereo not shown) [Example 64] | B (50-69) |

| SMILES | % Mortality Rating |
| --- | --- |
| N=C(N)NCCCC(N=CC=Cc1cccnn1)C(=O)O (stereo not shown) [Example 45] | C (0 to 49) |
| N=C(N)NCCCC(N=CC=Cc1ccc2ccoc2c1)C(=O)O (stereo not shown) [Example 62] | B (50-69) |
| CC(C=NC(CCCNC(=N)N)C(=O)O)=Cc1ccc(C(F)(F)F)cc1 (stereo not shown) [Example 29] | B (50-69) |
| C=CCc1ccc(C=CC=NC(CCCNC(=N)N)C(=O)O)cc1 (stereo not shown) [Example 34] | B (50-69) |
| N=C(N)NCCCC(N=CC=Cc1cc2ccccc2o1)C(=O)O (stereo not shown) [Example 63] | A (70-100) |
| C=CCc1ccc(C=CC=NC(CCCNC(=N)N)C(=O)O)c(O)c1 (stereo not shown) [Example 35] | B (50-69) |
| N=C(N)NCCCC(N=CC=Cc1ccncn1)C(=O)O (stereo not shown) [Example 43] | A (70-100) |
| N=C(N)NCCCC(N=CC=Cc1cnccn1)C(=O)O (stereo not shown) [Example 44] | B (50-69) |
| CCC(C=NC(CCCNC(=N)N)C(=O)O)=Cc1ccccc1OC(F)(F)F (stereo not shown) [Example 31] | C (0 to 49) |
| N=C(N)NCCCC(N=CC=Cc1ncco1)C(=O)O (stereo not shown) [Example 53] | C (0 to 49) |
| N=C(N)NCCCC(N=CC=Cc1ccc2scnc2c1)C(=O)O (stereo not shown) [Example 57] | A (70-100) |
| N=C(N)NCCCC(N=CC=Cc1cnc[nH]1)C(=O)O (stereo not shown) [Example 51] | B (50-69) |
| CCC(C=NC(CCCNC(=N)N)C(=O)O)=Cc1cccs1 (stereo not shown) [Example 47] | B (50-69) |
| N=C(N)NCCCC(N=CC=Cc1nc2ccccc2[nH]1)C(=O)O (stereo not shown) [Example 55] | C (0 to 49) |
| N=C(N)NCCCC(N=CC=Cc1ccc2c[nH]cc2c1)C(=O)O (stereo not shown) [Example 59] | A (70-100) |
| N=C(N)NCCCC(N=CC=Cc1ncc[nH]1)C(=O)O (stereo not shown) [Example 52] | B (50-69) |
| N=C(N)NCCCC(N=CC=Cc1ccc(C(F)(F)F)cc1)C(=O)O (stereo not shown) [Example 28] | B (50-69) |

same assay, conditions: Meloidogyne, 70-100 J2 juveniles, 22±2° C., 70±5% RH, dead/inactive counted at 24, 48, 72 and 96 hours (time of rating not stated)

| SMILES | mortality at 500 ppm [%] |
| --- | --- |
| N=C(N)NCCC[C@H](/N=C/C=C/c1ccsc1)C(=O)O [Example 21, (E)-N^2-[(2E)-3-(thiophen-3-yl)prop-2-en-1-ylidene]-L-arginine] | 70 to 100 |
| COc1cc(/C=C/C=N/[C@@H](CCCNC(=N)N)C(=O)O)ccc1O [Example 17, (E)-N^2-[(2E)-3-(4-hydroxy-3-methoxyphenyl)prop-2-en-1-ylidene]-L-arginine] | 70 to 100 |
| COc1cc(/C=C/C=N/[C@@H](CCCNC(=N)N)C(=O)O)ccc1OC(C)=O [Example 8, (E)-N^2-{(2E)-3-[4-(acetyloxy)-3-methoxyphenyl]prop-2-en-1-ylidene}-L-arginine] | 0 to 49 |
| N=C(N)NCCC[C@H](/N=C/C=C/c1c(O)cccc1F)C(=O)O [Example 3, (E)-N^2-[(2E)-3-(6-fluoro-2-hydroxyphenyl)prop-2-en-1-ylidene]-L-arginine] | 50 to 69 |
| N=C(N)NCCC[C@H](/N=C/C=C/c1ccc(F)cc1O)C(=O)O [Example 2, (E)-N^2-[(2E)-3-(4-fluoro-2-hydroxyphenyl)prop-2-en-1-ylidene]-L-arginine] | 50 to 69 |
| CC(=O)Oc1ccc(/C=C/C=N/[C@@H](CCCNC(=N)N)C(=O)O)cc1 [Example 18, (E)-N^2-{(2E)-3-[4-(acetyloxy)phenyl]prop-2-en-1-ylidene}-L-arginine] | 70 to 100 |
| COc1ccc(O)c(/C=C/C=N/[C@@H](CCCNC(=N)N)C(=O)O)c1 [Example 5, (E)-N^2-[(2E)-3-(2-hydroxy-5-methoxyphenyl)prop-2-en-1-ylidene]-L-arginine] | 50 to 69 |
| CC(/C=N/[C@@H](CCCNC(=N)N)C(=O)O)=C\c1ccccc1 [Example 10, (E)-N^2-[(2E)-2-methyl-3-phenylprop-2-en-1-ylidene]-L-arginine] | 70 to 100 |
| CCCCCC(/C=N/[C@@H](CCCNC(=N)N)C(=O)O)=C\c1ccccc1 [Example 12, (E)-N^2-[(2E)-2-benzylideneheptylidene]-L-arginine] | 0 to 49 |
| N=C(N)NCCC[C@H](/N=C/C=C/c1ccccc1OC(=O)c1ccccc1)C(=O)O [Example 19, (E)-N^2-{(2E)-3-[2-(benzoyloxy)phenyl]prop-2-en-1-ylidene}-L-arginine] | 0 to 49 |
| CCC(/C=N/[C@@H](CCCNC(=N)N)C(=O)O)=C\c1ccccc1 [Example 11, (E)-N^2-[(2E)-2-benzylidenebutylidene]-L-arginine] | 70 to 100 |
| CCC(/C=N/[C@@H](CCCNC(=N)N)C(=O)O)=C\c1ccco1 [Example 16, (E)-N^2-{(2E)-2-[(furan-2-yl)methylidene]butylidene}-L-arginine] | 0 to 49 |
| Cc1ccc(/C=C/C=N/[C@@H](CCCNC(=N)N)C(=O)O)cc1 [Example 25, (E)-N^2-[(2E)-3-(4-methylphenyl)prop-2-en-1-ylidene]-L-arginine] | 70 to 100 |
| COc1ccccc1/C=C/C=N/[C@@H](CCCNC(=N)N)C(=O)O [Example 6, (E)-N^2-[(2E)-3-(2-methoxyphenyl)prop-2-en-1-ylidene]-L-arginine] | 70 to 100 |
| N=C(N)NCCC[C@H](/N=C/C=C/c1nccs1)C(=O)O [Example 23, (E)-N^2-[(2E)-3-(1,3-thiazol-2-yl)prop-2-en-1-ylidene]-L-arginine] | 50 to 69 |
| COc1ccc(/C=C/C=N/[C@@H](CCCNC(=N)N)C(=O)O)cc1 [Example 7, (E)-N^2-[(2E)-3-(4-methoxyphenyl)prop-2-en-1-ylidene]-L-arginine] | 70 to 100 |
| N=C(N)NCCC[C@H](/N=C/C=C/c1nc2ccccc2s1)C(=O)O [Example 22, (E)-N^2-[(2E)-3-(1,3-benzothiazol-2-yl)prop-2-en-1-ylidene]-L-arginine] | 70 to 100 |
| CCCCCCC(/C=N/[C@@H](CCCNC(=N)N)C(=O)O)=C\c1ccccc1 [Example 13, (E)-N^2-[(2E)-2-benzylideneoctylidene]-L-arginine] | 0 to 49 |
| N=C(N)NCCC[C@H](/N=C/C=C/c1ccco1)C(=O)O [Example 14, (E)-N^2-[(2E)-3-(furan-2-yl)prop-2-en-1-ylidene]-L-arginine] | 70 to 100 |
| CC(/C=N/[C@@H](CCCNC(=N)N)C(=O)O)=C\c1ccco1 [Example 15, (E)-N^2-[(2E)-3-(furan-2-yl)-2-methylprop-2-en-1-ylidene]-L-arginine] | 50 to 69 |
| N=C(N)NCCC[C@H](/N=C/C=C/c1ccccc1O)C(=O)O [Example 1, (E)-N^2-[(2E)-3-(2-hydroxyphenyl)prop-2-en-1-ylidene]-L-arginine] | 70 to 100 |
| N=C(N)NCCC[C@H](/N=C/C=C/c1ccc(Cl)cc1O)C(=O)O [Example 4, (E)-N^2-[(2E)-3-(4-chloro-2-hydroxyphenyl)prop-2-en-1-ylidene]-L-arginine] | 50 to 69 |

tested on: not listed separately; experiment: Stability studies: storage at room temperature and under accelerated storage condition (ATS), purity estimated by HPLC; type: physicochemical; details: Day 14; 25° C. ± 2° C.; properly packed material
From the text: The properly packed material was subjected to the conditions mentioned in the table below (Table 5).

| SMILES | purity estimated by HPLC, Day 14 Condition 25° C. ± 2° C. |
| --- | --- |
| N#Cc1ccc(C=CC=NC(CCCNC(=N)N)C(=O)O)c(C(F)(F)F)c1 (stereo not shown) [Example 39] | 99.55 |
| N=C(N)NCCC[C@H](/N=C/C=C/c1c(O)cccc1F)C(=O)O [Example 3, (E)-N^2-[(2E)-3-(6-fluoro-2-hydroxyphenyl)prop-2-en-1-ylidene]-L-arginine] | 98.80 |

same assay, conditions: Day 14; 54° C. ± 2° C. (accelerated storage); properly packed material

| SMILES | purity estimated by HPLC, Day 14 Condition 54° C. ± 2° C. |
| --- | --- |
| N#Cc1ccc(C=CC=NC(CCCNC(=N)N)C(=O)O)c(C(F)(F)F)c1 (stereo not shown) [Example 39] | 99.60 |
| N=C(N)NCCC[C@H](/N=C/C=C/c1c(O)cccc1F)C(=O)O [Example 3, (E)-N^2-[(2E)-3-(6-fluoro-2-hydroxyphenyl)prop-2-en-1-ylidene]-L-arginine] | 98.79 |

same assay, conditions: Day Zero; 25° C. ± 2° C.; properly packed material

| SMILES | purity estimated by HPLC, Day Zero Condition 25° C. ± 2° C. |
| --- | --- |
| N#Cc1ccc(C=CC=NC(CCCNC(=N)N)C(=O)O)c(C(F)(F)F)c1 (stereo not shown) [Example 39] | 99.40 |
| N=C(N)NCCC[C@H](/N=C/C=C/c1c(O)cccc1F)C(=O)O [Example 3, (E)-N^2-[(2E)-3-(6-fluoro-2-hydroxyphenyl)prop-2-en-1-ylidene]-L-arginine] | 99.23 |

same assay, conditions: Day Zero; 54° C. ± 2° C. (accelerated storage); properly packed material

| SMILES | purity estimated by HPLC, Day Zero Condition 54° C. ± 2° C. |
| --- | --- |
| N#Cc1ccc(C=CC=NC(CCCNC(=N)N)C(=O)O)c(C(F)(F)F)c1 (stereo not shown) [Example 39] | 99.40 |
| N=C(N)NCCC[C@H](/N=C/C=C/c1c(O)cccc1F)C(=O)O [Example 3, (E)-N^2-[(2E)-3-(6-fluoro-2-hydroxyphenyl)prop-2-en-1-ylidene]-L-arginine] | 99.10 |
